# Experiment: Stability of cannabinoid and Vitamin E components of Beverage 1 (AB White) stored at 8° C. and 21-25° C., LCMSMS over 570 days
# Assay type: physicochemical
# Settings: for Stability in AB White, 8° C. (content by LCMSMS): beverage stored at 8° C.; for Stability in AB White, 21-25° C. (content by LCMSMS): beverage stored at 21-25° C.
# Experimental: The LCMSMS was calibrated for 0-1000 ng/ml cannabinoids with the same resin material used in the preparation of the concentrates. At each time period, 100 ml of beverage was diluted with 10 ml of methanol and injected into the LCMSMS for analysis.
smiles,measurement,setting,value
"C=C(C)[C@@H]1CCC(C)=C[C@H]1c1c(O)cc(CCC)cc1O [CBDV, cannabidivarin]","Stability in AB White, 8° C. (content by LCMSMS)",day 0,0.150 µg/mL
same,"Stability in AB White, 8° C. (content by LCMSMS)",day 1,0.146 µg/mL
same,"Stability in AB White, 8° C. (content by LCMSMS)",day 2,0.147 µg/mL
same,"Stability in AB White, 8° C. (content by LCMSMS)",day 3,0.146 µg/mL
same,"Stability in AB White, 8° C. (content by LCMSMS)",day 5,0.147 µg/mL
same,"Stability in AB White, 8° C. (content by LCMSMS)",day 8,0.148 µg/mL
same,"Stability in AB White, 8° C. (content by LCMSMS)",day 9,0.146 µg/mL
same,"Stability in AB White, 8° C. (content by LCMSMS)",day 10,0.148 µg/mL
same,"Stability in AB White, 8° C. (content by LCMSMS)",day 11,0.150 µg/mL
same,"Stability in AB White, 8° C. (content by LCMSMS)",day 12,0.150 µg/mL
same,"Stability in AB White, 8° C. (content by LCMSMS)",day 15,0.150 µg/mL
same,"Stability in AB White, 8° C. (content by LCMSMS)",day 16,0.148 µg/mL
same,"Stability in AB White, 8° C. (content by LCMSMS)",day 17,0.146 µg/mL
same,"Stability in AB White, 8° C. (content by LCMSMS)",day 18,0.146 µg/mL
same,"Stability in AB White, 8° C. (content by LCMSMS)",day 19,0.149 µg/mL
same,"Stability in AB White, 8° C. (content by LCMSMS)",day 22,0.149 µg/mL
same,"Stability in AB White, 8° C. (content by LCMSMS)",day 23,0.149 µg/mL
same,"Stability in AB White, 8° C. (content by LCMSMS)",day 24,0.147 µg/mL
same,"Stability in AB White, 8° C. (content by LCMSMS)",day 25,0.149 µg/mL
same,"Stability in AB White, 8° C. (content by LCMSMS)",day 26,0.152 µg/mL
same,"Stability in AB White, 8° C. (content by LCMSMS)",day 29,0.151 µg/mL
same,"Stability in AB White, 8° C. (content by LCMSMS)",day 30,0.148 µg/mL
same,"Stability in AB White, 8° C. (content by LCMSMS)",day 60,0.143 µg/mL
same,"Stability in AB White, 8° C. (content by LCMSMS)",day 90,0.146 µg/mL
same,"Stability in AB White, 8° C. (content by LCMSMS)",day 120,0.144 µg/mL
same,"Stability in AB White, 8° C. (content by LCMSMS)",day 150,0.150 µg/mL
same,"Stability in AB White, 8° C. (content by LCMSMS)",day 180,0.150 µg/mL
same,"Stability in AB White, 8° C. (content by LCMSMS)",day 210,0.147 µg/mL
same,"Stability in AB White, 8° C. (content by LCMSMS)",day 240,0.145 µg/mL
same,"Stability in AB White, 8° C. (content by LCMSMS)",day 270,0.143 µg/mL
same,"Stability in AB White, 8° C. (content by LCMSMS)",day 300,0.143 µg/mL
same,"Stability in AB White, 8° C. (content by LCMSMS)",day 330,0.146 µg/mL
same,"Stability in AB White, 8° C. (content by LCMSMS)",day 360,0.145 µg/mL
same,"Stability in AB White, 8° C. (content by LCMSMS)",day 390,0.143 µg/mL
same,"Stability in AB White, 8° C. (content by LCMSMS)",day 420,0.144 µg/mL
same,"Stability in AB White, 8° C. (content by LCMSMS)",day 450,0.145 µg/mL
same,"Stability in AB White, 8° C. (content by LCMSMS)",day 480,0.143 µg/mL
same,"Stability in AB White, 8° C. (content by LCMSMS)",day 510,0.138 µg/mL
same,"Stability in AB White, 8° C. (content by LCMSMS)",day 540,0.139 µg/mL
same,"Stability in AB White, 8° C. (content by LCMSMS)",day 570,0.138 µg/mL
same,"Stability in AB White, 21-25° C. (content by LCMSMS)",day 0,0.150 µg/mL
same,"Stability in AB White, 21-25° C. (content by LCMSMS)",day 1,0.149 µg/mL
same,"Stability in AB White, 21-25° C. (content by LCMSMS)",day 2,0.148 µg/mL
same,"Stability in AB White, 21-25° C. (content by LCMSMS)",day 3,0.149 µg/mL
same,"Stability in AB White, 21-25° C. (content by LCMSMS)",day 5,0.144 µg/mL
same,"Stability in AB White, 21-25° C. (content by LCMSMS)",day 8,0.145 µg/mL
same,"Stability in AB White, 21-25° C. (content by LCMSMS)",day 9,0.148 µg/mL
same,"Stability in AB White, 21-25° C. (content by LCMSMS)",day 10,0.147 µg/mL
same,"Stability in AB White, 21-25° C. (content by LCMSMS)",day 11,0.150 µg/mL
same,"Stability in AB White, 21-25° C. (content by LCMSMS)",day 12,0.152 µg/mL
same,"Stability in AB White, 21-25° C. (content by LCMSMS)",day 15,0.151 µg/mL
same,"Stability in AB White, 21-25° C. (content by LCMSMS)",day 16,0.145 µg/mL
same,"Stability in AB White, 21-25° C. (content by LCMSMS)",day 17,0.150 µg/mL
same,"Stability in AB White, 21-25° C. (content by LCMSMS)",day 18,0.151 µg/mL
same,"Stability in AB White, 21-25° C. (content by LCMSMS)",day 19,0.148 µg/mL
same,"Stability in AB White, 21-25° C. (content by LCMSMS)",day 22,0.148 µg/mL
same,"Stability in AB White, 21-25° C. (content by LCMSMS)",day 23,0.148 µg/mL
same,"Stability in AB White, 21-25° C. (content by LCMSMS)",day 24,0.145 µg/mL
same,"Stability in AB White, 21-25° C. (content by LCMSMS)",day 25,0.145 µg/mL
same,"Stability in AB White, 21-25° C. (content by LCMSMS)",day 26,0.149 µg/mL
same,"Stability in AB White, 21-25° C. (content by LCMSMS)",day 29,0.147 µg/mL
same,"Stability in AB White, 21-25° C. (content by LCMSMS)",day 30,0.151 µg/mL
same,"Stability in AB White, 21-25° C. (content by LCMSMS)",day 60,0.149 µg/mL
same,"Stability in AB White, 21-25° C. (content by LCMSMS)",day 90,0.143 µg/mL
same,"Stability in AB White, 21-25° C. (content by LCMSMS)",day 120,0.141 µg/mL
same,"Stability in AB White, 21-25° C. (content by LCMSMS)",day 150,0.146 µg/mL
same,"Stability in AB White, 21-25° C. (content by LCMSMS)",day 180,0.141 µg/mL
same,"Stability in AB White, 21-25° C. (content by LCMSMS)",day 210,0.142 µg/mL
same,"Stability in AB White, 21-25° C. (content by LCMSMS)",day 240,0.145 µg/mL
same,"Stability in AB White, 21-25° C. (content by LCMSMS)",day 270,0.148 µg/mL
same,"Stability in AB White, 21-25° C. (content by LCMSMS)",day 300,0.142 µg/mL
same,"Stability in AB White, 21-25° C. (content by LCMSMS)",day 330,0.144 µg/mL
same,"Stability in AB White, 21-25° C. (content by LCMSMS)",day 360,0.146 µg/mL
same,"Stability in AB White, 21-25° C. (content by LCMSMS)",day 390,0.146 µg/mL
same,"Stability in AB White, 21-25° C. (content by LCMSMS)",day 420,0.143 µg/mL
same,"Stability in AB White, 21-25° C. (content by LCMSMS)",day 450,0.144 µg/mL
same,"Stability in AB White, 21-25° C. (content by LCMSMS)",day 480,0.143 µg/mL
same,"Stability in AB White, 21-25° C. (content by LCMSMS)",day 510,0.139 µg/mL
same,"Stability in AB White, 21-25° C. (content by LCMSMS)",day 540,0.140 µg/mL
same,"Stability in AB White, 21-25° C. (content by LCMSMS)",day 570,0.138 µg/mL
